Test results reported in patent US5458876A, “Control of microbial growth with lantibiotic/lysozyme formulations” (priority 1990, dated 1995).
Ends that are not written are not given here.

Legend:
L. monocytogenes Scott A = experiment: Survival of cells in citric acid buffer with subtilin and/or lysozyme; assay type: cell-based, Listeria monocytogenes; conditions: for Surviving Cells After 1 Hour at 25° C.: 10 mM citric acid buffer pH 5.5, untreated 7.5; for Surviving Cells After 1 Hour at 25° C. / log10 reduction: subtilin 100 μ/ml and/or lysozyme 500 ppm; for log10 reduction / effect on the L. monocytogenes cells: 1 hour at 25° C., pH 5.5; for effect on the L. monocytogenes cells: alone, subtilin 100 μ/ml or lysozyme 500 ppm
Procedure: A culture of L. monocytogenes Scott A was grown overnight in BHI broth and diluted 1:100 in 10 mM citric acid buffer (pH 5.5). This preparation, 100 μl, was added to 900 μl of citric acid buffer containing subtilin, lysozyme or both. The subtilin used in this experiment was prepared by the pure culture fermentation of Bacillus subtillus ATCC 6633 as described by Banerjee and Hansen in J. Biol. Chem. 1988 263 (19): 9508-9514.

[1] = test system: Listeria monocytogenes, Scott A; experiment: Lysis of washed cells at various pH levels (loss of absorbance at 540 nm); assay type: cell-based; conditions: 100 IU/ml nisin alone or 10 μg/ml lysozyme alone; 37°
Procedure: A culture of Listeria monocytogenes, Scott A, was grown overnight in BHI broth and harvested by centrifugation. The harvested cells were washed with 0.067M Potassium phosphate buffer (pH 6.6) and resuspended in 0.067M potassium phosphate buffer at various pH levels to a final absorbance of about 1.0 at 540 nm as determined in a Bausch & Lomb spectronic 20. Lysis of the bacteria is accompanied by a loss in absorbance at 540 nm. Nisin and lysozyme were added to these solutions to final concentrations of 100 IU/ml nisin and 10 μg/ml lysozyme and the solutions were placed in a 37° water bath whereupon the change in adsorption at 540 nm was monitored.

Staphlococcus aureus = experiment: Minimal inhibitory concentration in BHI broth; assay type: cell-based; conditions: lysozyme alone, 37° C.
Procedure: The synergy of nisin and lysozyme is not limited to the control of L. monocytogenes. The minimal inhibitory concentration (MIC) of nisin was lowered by the addition of lysozyme for the control of other gram positive bacteria. For example, a culture of Staphlococcus aureus was grown overnight in BHI broth and subsequently diluted into fresh BHI broth with various concentrations of nisin, lysozyme or a combination of nisin and lysozyme. […] Accordingly, one can use less nisin to provide an equivalent level of control by the addition of a synergistic amount of lysozyme.

[2] = test system: Listeria monocytogenes Scott A; experiment: Disk inhibition of growth on BHI agar overlay plates; assay type: cell-based; conditions: 10 μl on disks, overnight 37° C.; nisin below 50 IU/ml; lysozyme up to and including 125 μg/ml; blend 50 IU/ml nisin and 50 μg/ml lysozyme
Procedure: A culture of Listeria monocytogenes Scott A was grown overnight in Brain Heart Infusion broth (BHI, Difco Laboratories, Inc.). Overlay plates were prepared using 25 ml of BHI agar overlayed with 4 ml BHI agar containing 10 μl of the overnight culture. Sterile antibiotic sensitivity disks were blotted with 10 μl of nisin, lysozyme or nisin/lysozyme blends at various concentrations; placed on the surface of the overlay plates and incubated overnight at 37° C.

[3] = test system: S. typhimurium (ATCC 14028); experiment: Survival of cells in citric acid buffer with nisin and/or lysozyme; assay type: cell-based, Salmonella typhimurium
Procedure: A culture of S. typhimurium (ATCC 14028) was grown overnight on nutrient broth, diluted in 10 mM citric acid buffer (pH 3.5) and added to citric acid buffer containing nisin, lysozyme or a combination thereof.

L. monocytogenes = experiment: Growth of L. monocytogenes in inoculated raw pork sausage (surface response model); assay type: cell-based, Listeria monocytogenes; conditions: alone, 0-500 IU/gm nisin or 0-500 ppm lysozyme; 3 days at 5° C.
Procedure: L. monocytogenes can grow at 5° C. and poses a threat to some processed meats. Its control can include reduction in the rate of growth, bacteriostatic effects, and most desirably, bacteriocidal effects.
Raw sausage was inoculated with L. monocytogenes from a BHI overnight culture; various amounts of nisin and/or lysozyme were incorporated into the sausage. The treated sausage was held for either 3 or 21 days at 5° C. whereupon viable L. monocytogenes were enumerated. A surface response model was constructed over a range of 0-500 IU/gm nisin and 0-500 ppm lysozyme. The surface response model from the 3 day data are set out in the following FIG. 3. […] Similar synergies are seen at other levels of nisin and lysozyme.

Substance	Surviving Cells After 1 Hour at 25° C. (L. monocytogenes Scott A)	log10 reduction (L. monocytogenes Scott A)	effect on the L. monocytogenes cells (L. monocytogenes Scott A)	pH of maximum lysis [1]	effect on subsequent growth of the bacteria (Staphlococcus aureus)	inhibition of bacterial growth (zone of inhibition around disks) [2]	Surviving Cells After 1 Hour at 37° C. ([3]; 10 mM citric acid buffer pH 3.5, nisin 1000 IU/ml and/or lysozyme 500 μg/ml, untreated 7.18)	log10 reduction ([3]; 1 hour at 37° C., pH 3.5, nisin 1000 IU/ml and/or lysozyme 500 μg/ml)	effect against S. typhimurium ([3]; lysozyme 500 μg/ml alone, 1 hour at 37° C., pH 3.5)	control of L. monocytogenes in raw sausage (L. monocytogenes)
subtilin (WKSESLCTPGCVTGALQTCFLQTLTCNCKISK; cysteine pairing not given here; also: lantibiotic thioether and dehydro residues, places not given here; UniProt P10946 25-56, looked up) [lantibiotic prepared by pure culture fermentation of Bacillus subtillus ATCC 6633, reference compound]	7.2 log10 colony forming units/ml	0.3 log10	little effect							
lysozyme	7.4 log10 colony forming units/ml	0.1 log10	little effect	6.0-6.5 pH	did not affect	nor was inhibition observed	7.08 log10 colony forming units/ml	0.10 log10	ineffective	ineffective
